Patent US20100331545A1, “REGULATOR FOR SIGNALING TOLL-LIKE RECEPTOR, WHICH COMPRISES CATHEPSIN INHIBITOR AS ACTIVE INGREDIENT” (NIPPON CHEMIPHAR CO., LTD., priority 2007, published 2010)

Tests used:
[1] = test system: TLR7, 8; assay: Cytokine mRNA expression in R837-treated DCs derived from mouse spleen; type: cell-based; conditions: R837 (TLR7, 8 ligand)-treated mouse spleen DCs, total RNA 3 hours after stimulation
Method: (§1) Quantitative RT-PCR was performed as described in K. Sato et al., Nat Med 12, 1410 (2006). The following primers were used.
(§2) Spleens were excised from male mice of 8 to 10 weeks. Dendritic cells (DCs) were separated from the spleens using pan DC microbeads (Miltenyi Biotec, Bergisch Gladbach, Germany), according to the manufacturer's instructions.
(§3) Total RNA was extracted 3 hours after stimulation.

[2] = test system: TLR3; assay: Cytokine mRNA expression in poly(I:C)-treated DCs derived from mouse spleen; type: cell-based; conditions: poly(I:C) (TLR3 ligand)-treated mouse spleen DCs, total RNA 3 hours after stimulation
Method: as §1, §2, §3

[3] = test system: extracellular-signal regulated kinases 1/2 (ERK 1/2); assay: ERK 1/2 phosphorylation in stimulated DCs (immunoblot); type: cell-based, mouse; conditions: CpG-induced
Method: DCs were cultured in low serum medium (0.1% FBS) for 4 hours to reduce background and then stimulated with CpG ODN or LPS in the presence or absence of NC-2300. The stimulated cells were subjected to immunoblot analyses as described in K. Sato et al., Nat Med12, 1410 (2006), using Abs for ERK-1/2, phosphorylated ERK-1/2 and β-actin.

[4] = test system: T cells stimulated with anti-CD3/CD28 antibodies; assay: IL-2 production of T cells stimulated with anti-CD3/CD28 antibodies (ELISA); type: cell-based, mouse
Method: (§4) Cells were cultured for 3-24 hours with or without PAMPs or plate-bound anti-CD3/CD28 antibodies in the presence or absence of NC-2300, and concentration of cytokines in the culture supernatant was determined by ELISA kits, according to the manufacturer's instructions.

[5] = test system: BM-DCs; assay: In vitro development of BM-DCs; type: cell-based, mouse
Method: (§5) Immature DCs were generated from mouse BM, as described in K. Inaba et al., J. Exp. Med. 176,1693 (1992). In brief, BM cells were cultured with 10 ng ml^−1 murine GM-CSF or 10 ng ml^−1 murine Flt3L in RPMI 1640 medium supplemented with 10% FBS for 6 days. Loosely adherent cells were harvested by gentle pipetting and were used as BM-derived DCs. To obtain BM-derived macrophages, BM cells were cultured with 10 ng ml^−1 M-CSF in α-MEM medium supplemented with 10% FBS for 2 days, and adherent cells were used as BM-derived macrophages. For the pathogen-associated molecular pattern (PAMP) stimulation, cells were plated at 5×10^5 cells ml^−1 in 24-well plates, and cultured with 10 ng ml^−1 Lipopolysaccharide (LPS), 30 μg ml^−1 Peptidoglycan Type I (PGN), or Endotoxin-free phosphorothioate-stabilized CpG oligodeoxynucleotides (CpG ODN).

[6] = target: T1, cathepsin K (Mus musculus, UniProt P55097); assay: Enzymatic activity of cathepsin K in BM-DCs (substrate Z-Gly-Pro-Arg-MCA); type: cell-based; conditions: BM-DCs pre-treated 24 hours, cell lysates
T1 construct: cell lysates were subjected to enzymatic assay; endogenous in cells; host or cells: bone marrow-derived dendritic cells (BM-DCs): cells pre-treated with NC-2300, then lysed
T1 sequence (P55097 115-329): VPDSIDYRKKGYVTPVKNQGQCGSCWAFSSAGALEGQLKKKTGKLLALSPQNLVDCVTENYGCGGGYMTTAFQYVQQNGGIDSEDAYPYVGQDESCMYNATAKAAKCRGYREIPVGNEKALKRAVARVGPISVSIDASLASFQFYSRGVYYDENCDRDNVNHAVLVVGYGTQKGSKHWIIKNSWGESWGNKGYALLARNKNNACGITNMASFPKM
Method: BM-DCs were pre-treated with or without the cathepsin K inhibitor NC-2300 for 24 hours and washed extensively with cold phosphate-buffered saline (PBS), and cell lysates were subjected to enzymatic assay. Cathepsin K activity was measured with cathepsin K specific substrate, Z-Gly-Pro-Arg-MCA (GPR).

[7] = test system: BM-derived macrophages; assay: Activation of BM-derived macrophages stimulated by PAMPs; type: cell-based, mouse
Method: as §5, §4

[8] = test system: CD40, CD80 and CD86; assay: TLR9-mediated expression of cell surface molecules in DCs (flowcytometry); type: cell-based, mouse; conditions: stimulated 48 hours
Method: (§6) Before staining, cells were incubated with mouse BD Fc Block to minimize nonspecific staining. The cells were then stained with fluorophore-conjugated monoclonal Abs. The following fluorophore-conjugated mAbs were used; Allophycocyanin (APC)-conjugated anti-CD3e (145-2C11), fluorescein isothiocyanate (FITC)-conjugated anti-CD4 (RM4-5), CD11c (HL3), CD40 (3/23), CD80 (16-10Al), CD86 (GL1), I-A^d (AMS-32.1), and Phycoerythrin (PE)-conjugated anti-mouse IL-17 (TC11-18H10). For intracellular cytokine staining, cells were collected and left unstimulated or were stimulated for 5 hours with PMA (40 ng ml^−1) and ion-omycin (4 μg ml^−1) in the presence of GolgiPlug at the recommended concentration. Standard intracellular cytokine staining was performed as follows; cells were first stained extracellularly with APC-conjugated anti-CD3 and FITC-conjugated anti-CD4 mAbs, then were fixed and permeabilized with Cytofix/Cytoperm solution, and finally were stained intracellularly with PE-conjugated anti-IL-17 mAb. Flowcytometric analysis was performed by FACScan with CellQuest software or FACSCanto II with Diva software.
DCs were stimulated with CpG or LPS for 48 hours and analyzed by flowcytometry.

[9] = test system: TLR9; assay: Cytokine mRNA expression in CpG-treated BM-DCs (quantitative RT-PCR); type: cell-based, mouse
Method: as §1
The level of mRNA expression was normalized with that of β-actin expression.
BM-DCs were generated by either GM-CSF or Flt3L. Total RNA was extracted 6 hours after CpG stimulation.

[10] = test system: T cells stimulated with anti-CD3/CD28 antibodies; assay: Cell proliferation assay of T cells stimulated with anti-CD3/CD28 antibodies; type: cell-based, mouse
Method: Cell proliferation was evaluated by using a Cell Proliferation ELISA kit according to the manufacturer's protocol.

[11] = test system: rat model of adjuvant arthritis; assay: Rat adjuvant arthritis, oral NC-2300 compared with alendronate; type: in vivo; conditions: for bone erosion in the ankle (radiological analysis): administered daily day 0 to day 35, soft X-rays of ankle joints day 36
Method: Rats were injected with complete Freund's adjuvant on day 0.
Bone mineral density of the proximal tibia assessed by pQCT (day 36).
Assessment for hind paws of adjuvant arthritis rats treated with NC-2300 or vehicle.
Adjuvant arthritis in hind paw administered with NC-2300 or vehicle was evaluated.

[12] = test system: TLR9; assay: CpG-stimulated cytokine production by BM-DCs (ELISA); type: cell-based, mouse; conditions: CpG (TLR9 ligand), 24 hours
Method: as §5, §4
BM-DCs were stimulated with peptidoglycan (PGN), lipopolysaccharide (LPS), and unmethylated CpG oligodeoxynucleotides (CpG) for 24 hours and the culture super-natants were subjected to ELISA. *P<0.05, ***P<0.001 (versus control).

[13] = test system: Th17 cells; assay: Th17 cell induction by splenic DCs cocultured with CD4+ T cells (intracellular staining of IL-17); type: cell-based, mouse; conditions: 3 days coculture
Method: as §6
CD4-positive T cells and splenic DCs were isolated from the spleen using a magnetic sorter and anti-CD4 microbeads. These cells were stimulated with plate-bound anti-CD3 and anti-CD28 mAbs (1 μg ml^−1 each) for 3 days in the presence of 2 ng ml^−1 human TGF-β, 10 μg ml^−1 each of anti-IFN-γ and anti-IL-4 mAbs, with or without CpG ODN, LPS or PGN.
Cathepsin K inactivation results in defective Th17 polarization in response to CpG, but not LPS or PGN were measured. CD4^+T cells and DCs were sorted from the spleen, and cocultured in the presence of CpG, LPS, or PGN for 3 days. After the culture, percentages of CD3e^+CD4^+IL-17^+ cells were analyzed by flowcytometry.

[14] = test system: cathepsin K−/− DCs; assay: Cytokine production in WT or cathepsin K−/− DCs in response to LPS or CpG, with chloroquine; type: cell-based, mouse; conditions: chloroquine added 1 hour before the stimulation; cytokines IL-12 and IL-6
Method: as §4
Cytokine production in WT or cathepsin K^−/− DCs in response to LPS or CpG was measured. Chloroquine was added 1 hour before the stimulation to suppress endosomal acidification. N.D., not detected. *P<0.05, ***P<0.001 (versus WT).

[15] = BM-DCs, total RNA 6 hours after CpG stimulation
[16] = arthritic rats, high dose treatment, day 35

In the case of `CCOC(=O)[C@H]1O[C@@H]1C(=O)N[C@@H](CC(C)C)C(=O)NCCC(C)C` [E64d, reference compound], the “cytokine mRNA expression (IFN-1)” value [1] is reported as “suppressed” and the “cytokine mRNA expression (IFN-1)” value [2] is reported as “suppressed”.
`CC(C)COC[C@H](CC(C)C)NC(=O)[C@H]1O[C@@H]1C(=O)[O-].[Na+]` [NC-2300, monosodium (2S,3S)-3-[[(1S)-1-isobutoxymethyl-3-methylbutyl]carbamoyl]oxirane-2-carboxylate] was tested, and the “phosphorylation of ERK 1/2 in DCs” value [3] was “Suppression”, the “cytokine mRNA expression (IFN-1)” value [1] was “suppressed” and the “cytokine mRNA expression (IFN-1)” value [2] was “suppressed”. For the same molecule, the “IL-2 production of T cells” value [4] was “no effect”, the “in vitro development of BM-DCs” value [5] was “no effects” and the “cathepsin K activity in DCs” value [6] was “inhibited by NC-2300 in a dose-dependent manner”. The “activation of BM-derived macrophages” value [7] was “no significant effects”, the “expression of CD40 in DCs” value [8] was “reduced expression” and the “expression of CD80 in DCs” value [8] was “reduced expression”. The “expression of CD86 in DCs” value [8] was “reduced expression”, the “CpG-induced expression of IL-6 at the mRNA level” value [9, 15] was “downregulated” and the “CpG-induced expression of IL-12 at the mRNA level” value [9, 15] was “downregulated”. For the same molecule, the “CpG-induced expression of IL-23 at the mRNA level” value [9, 15] was “downregulated”, the “IFN production by Flt3L-induced DCs in response to CpG” value ([9]; Flt3L-induced DCs, CpG) was “suppressed” and the “proliferation of T cells” value [10] was “no effect”. The “locomotion activity: arthritis-induced incapacitation of rearing behavior” value [11, 16] was “significantly ameliorated the arthritis-induced incapacitation of rearing behavior”, the “locomotion activity: severity of the hind limb lameness” value [11, 16] was “reduced the severity of the hind limb lameness” and the “onset rate of arthritis” value ([11]; rat adjuvant arthritis) was “without affecting the onset rate of arthritis”. The “paw swelling in the course of arthritis” value ([11]; rat adjuvant arthritis, hind paws) was “ameliorated paw swelling”, the “inflammation when administered after the onset of disease” value ([11]; rat adjuvant arthritis, administered after the onset of disease) was “ameliorated inflammation” and the “bone erosion in the ankle (radiological analysis)” value ([11]; rat adjuvant arthritis) was “markedly suppressed bone erosion”. The “periarticular osteoporosis in the proximal tibia (bone mineral density)” value ([11]; rat adjuvant arthritis, pQCT day 36) was “comparable inhibitory effect”, the “production of IL-12 by DCs” value [12] was “significantly inhibited” and the “production of IL-23 by DCs” value [12] was “significantly inhibited”. For the same molecule, the “ability of DCs to induce Th17 cells” value ([13]; DCs stimulated with CpG) was “markedly inhibited”, the “ability of DCs to induce Th17 cells” value ([13]; DCs stimulated with LPS) was “only when DCs were stimulated with CpG” and the “ability of DCs to induce Th17 cells” value ([13]; DCs stimulated with PGN) was “only when DCs were stimulated with CpG”.
`NCCCC(O)(P(=O)(O)O)P(=O)(O)O` [alendronate, reference compound] was tested, and the “bone erosion in the ankle (radiological analysis)” value ([11]; rat adjuvant arthritis) was “did not efficiently suppress bone erosion”.
For `CCN(CC)CCCC(C)Nc1ccnc2cc(Cl)ccc12` (stereo not shown) [chloroquine], the “cytokine induction in cathepsin K−/− DCs” value [14] was “further suppressed”.
